The record followed here is US20110098325A1, “PYRIDINE BENZAMIDES AND PYRAZINE BENZAMIDES USED AS PKD INHIBITORS” (CANCER RESEARCH TECHNOLOGY LIMITED, priority 2006, published 2011).

The experiment addresses T1, human full length PKD2 (Homo sapiens, UniProt Q9BZL6).
T1 construct: human full length PKD2 at ˜100 μg/mL was purchased from Upstate Ltd; purchased Upstate Ltd 14-506
T1 sequence (Q9BZL6 1-878): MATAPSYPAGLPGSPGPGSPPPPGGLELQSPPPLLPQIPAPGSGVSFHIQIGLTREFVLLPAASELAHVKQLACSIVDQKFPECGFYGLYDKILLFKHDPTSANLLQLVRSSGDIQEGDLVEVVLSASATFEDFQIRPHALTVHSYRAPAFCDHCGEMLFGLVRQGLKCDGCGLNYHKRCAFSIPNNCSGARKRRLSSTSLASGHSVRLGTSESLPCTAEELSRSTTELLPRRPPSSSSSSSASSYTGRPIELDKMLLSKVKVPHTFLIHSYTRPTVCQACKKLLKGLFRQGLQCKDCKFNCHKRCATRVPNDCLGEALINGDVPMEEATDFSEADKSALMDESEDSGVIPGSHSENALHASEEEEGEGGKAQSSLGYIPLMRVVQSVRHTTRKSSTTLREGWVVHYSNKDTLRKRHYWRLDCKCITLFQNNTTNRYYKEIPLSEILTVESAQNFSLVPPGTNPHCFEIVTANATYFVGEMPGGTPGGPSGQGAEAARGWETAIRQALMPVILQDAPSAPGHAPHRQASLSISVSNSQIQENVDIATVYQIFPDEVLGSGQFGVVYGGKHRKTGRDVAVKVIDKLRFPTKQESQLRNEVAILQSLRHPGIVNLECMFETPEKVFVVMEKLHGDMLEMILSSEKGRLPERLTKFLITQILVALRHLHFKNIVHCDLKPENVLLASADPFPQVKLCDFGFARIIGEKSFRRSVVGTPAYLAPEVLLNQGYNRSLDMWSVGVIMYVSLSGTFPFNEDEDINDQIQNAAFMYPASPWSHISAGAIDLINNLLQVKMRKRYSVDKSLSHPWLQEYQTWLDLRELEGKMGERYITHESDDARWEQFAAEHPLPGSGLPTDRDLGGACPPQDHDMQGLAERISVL
The experiment can be described thus: PKD2 (Human Full Length) Enzyme Activity Assay (IMAP fluorescence polarisation). Type of experiment: biochemical. Conditions: stands directly after the PKD2 data (b743-b745); read-out: IC50, printed as PKD1 (Human Full Length) Enzyme Activity Assay. As for the experimental part: Kinase Assay Reaction Buffer: This consisted of 0.22 μM filtered 25 mM HEPES and 10 mM MgCl2 pH 7.5.
Kinase: human full length PKD2 at ˜100 μg/mL was purchased from Upstate Ltd (Product code 14-506), and obtained from aliquots stored at −70° C. It was prepared with a final concentration of 0.1 μg/mL by diluting 1:300 in Reaction Buffer (30 μL per 9 mL-5 mL per plate with an additional 4 mL dead volume) and vortexing prior to use. It is necessary to check this concentration regularly in case of enzyme degradation.
Substrate: Fluorescein labelled glycogen synthase-derived peptide (FI)-KKLNRTLSVA (also known as MAPKAP K2 substrate) was obtained from Molecular Devices (Product code R7127). […]
5 μL Kinase/Substrate in Reaction Buffer was added to ‘test’ and all ‘control’ wells of a Corning black low binding 384 well (90 μL volume) microplate to give 0.1 μg/mL and 2 μM reaction concentration respectively. […] The fluorescence polarisation of the peptide substrate was measured using an analyst (Molecular devices) microplate reader with a single read at Ex485 Em535 (Analyst settings: Z Height 5 mm, G Factor 0.95, Reads/well 1, Integration 100000 μs, Gain Sensitivity 2).
Percentage inhibition was calculated based on activity of the test sample minus the average values in the blank wells relative to the average values measured in control wells minus the average values in the blank wells. […]
(In general: Fluorescence polarisation rises when a labelled molecule tumbles more slowly, as on binding a larger partner.)

For the compound `COc1cc(-c2cc(-c3cccc(C(=O)NCCN(C)C)c3)cnc2N)ccc1O` [Y-059, 3-[6-Amino-5-(4-hydroxy-3-methoxy-phenyl)-pyridin-3-yl]-N-(2-dimethylamino-ethyl)-benzamide], the IC50 – broadly, the concentration that gives 50% inhibition – worked out at 0.032 µM. In the case of `COc1cc(-c2cncc(-c3cccc(C(=O)NCCN(C)C)c3)n2)ccc1O` [X-007, N-(2-Dimethylamino-ethyl)-3-[6-(4-hydroxy-3-methoxy-phenyl)-pyrazin-2-yl]-benzamide], the IC50 came out at 0.42 µM.
